Reference: patent US20210161997A1, “TREATING DISEASES VIA TARGETED MODULATION OF GENE SIGNALING NETWORKS” (Camp4 Therapeutics Corporation, priority 2018, published 2021)
Structures can show the parent of a compound that is named as a salt.

B1: Anti mullerian hormone: TGF-beta activator (protein, UniProt P03971 452-560, looked up)
Muellerian-inhibiting factor: SAGATAADGPCALRELSVDLRAERSVLIPETYQANNCQGVCGWPQSDRNPRYGNHVVLLLKMQVRGAALARPPCCVPTAYAGKLLISLSEERISAHHVPNMVATECGCR
B2: Wnt3a: FRIZZLED activator (protein, UniProt P56704 19-352, looked up)
Protein Wnt-3a: SYPIWWSLAVGPQYSSLGSQPILCASIPGLVPKQLRFCRNYVEIMPSVAEGIKIGIQECQHQFRGRRWNCTTVHDSLAIFGPVLDKATRESAFVHAIASAGVAFAVTRSCAEGTAAICGCSSRHQGSPGKGWKWGGCSEDIEFGGMVSREFADARENRPDARSAMNRHNNEAGRQAIASHMHLKCKCHGLSGSCEVKTCWWSQPDFRAIGDFLKDKYDSASEMVVEKHRESRGWVETLRPRYTYFKVPTERDLVYYEASPNFCEPNPETGSFGTRDRTCNVSSHGIDGCDLLCCGRGHNARAERRREKCRCVFHWCCYVSCQECTRVYDVHTCK

Assays:
Format in all cases: cell-based
[1] = test system: MECP2 mRNA; assay: MECP2 mRNA in stellate cells; details: average fold change; for Stellate MECP2 (Avg_FC) 1 uM: compound 1 uM; for Stellate MECP2 (Avg_FC) 10 uM: compound 10 uM
[2] = test system: MECP2 mRNA; assay: MECP2 mRNA in primary human hepatocytes (donor 1, donor 2); details: average fold change; for Human hep donor-1 MECP2 (Avg_FC) 1 uM / Human hep donor-1 MECP2 (Avg_FC) 10 uM: human hepatocytes donor-1; for Human hep donor-1 MECP2 (Avg_FC) 1 uM / Human hep donor-2 MECP2 (Avg_FC) 1 uM: compound 1 uM; for Human hep donor-1 MECP2 (Avg_FC) 10 uM / Human hep donor-2 MECP2 (Avg_FC) 10 uM: compound 10 uM; for Human hep donor-2 MECP2 (Avg_FC) 1 uM / Human hep donor-2 MECP2 (Avg_FC) 10 uM: human hepatocytes donor-2
Description: (§1) Human hepatocytes were obtained from two donors from Massachusetts General Hospital, namely MGH54 and MGH63, and one donor from Lonza, namely HUM4111B. Cryopreserved hepatocytes were cultured in plating media for 16 hours, transferred to maintenance media for 4 hours. Cultured on serum-free media for 2 hours, then a compound was added. The hepatocytes were maintained on the serum-free media for 16 hours prior to gene expression analysis. Primary human hepatocytes were stored in the vapor phase of a liquid nitrogen freezer (about −130° C.).
(§2) Human hepatocytes cultured as described above were plated in 24-well format, adding 375,000 cells per well in a volume of 500 ul plating medium. Four hours before treatment, cells were washed with PBS and the medium was changed to either: fresh maintenance medium (complete) or modified maintenance medium.
(§3) Compound stocks were prepared at 1000× final concentration and added in a 2-step dilution to the medium to reduce risk of a compound precipitating out of solution when added to the cells, and to ensure reasonable pipetting volumes. One at a time, each compound was first diluted 10-fold in warm (about 37° C.) modified maintenance medium (initial dilution=ID), mixed by vortexing, and the ID was diluted 100-fold into the cell culture (e.g. 5.1 ul into 1 well of a 24-well plate containing 0.5 mL medium). The plate was mixed by carefully swirling and after all wells were treated and returned to the incubator overnight. If desired, separate plates/wells were treated with vehicle-only controls and/or positive controls. If using multi-well plates, controls were included on each plate. After about 18 hours, cells were harvested for further analysis, e.g., ChIP-seq, RNA-seq, ATAC-seq, etc.
Samples were amplified using Taqman probes from ThermoFisher.

[3] = test system: UGT1A1; assay: RNA-seq of UGT1A1 expression in compound-treated primary human hepatocytes
Description: as §1, §2, §3
This protocol is a modified version of the following protocols: MagMAX mirVana Total RNA Isolation Kit User Guide (Applied Biosystems #MAN0011131 Rev B.0), NEBNext Poly(A) mRNA Magnetic Isolation Module (E7490), and NEBNext Ultra Directional RNA Library Prep Kit for Illumina (E7420) (New England Biosystems #E74901).
The MagMAX mirVana kit instructions (the section titled “Isolate RNA from cells” on pages 14-17) were used for isolation of total RNA from cells in culture. Two hundred μl of Lysis Binding Mix was used per well of the multiwell plate containing adherent cells (usually a 24-well plate).
For mRNA isolation and library prep, the NEBNext Poly(A) mRNA Magnetic Isolation Module and Directional Prep kit was used. RNA isolated from cells above was quantified, and prepared in […] of each sample in 50 μl of nuclease-free water. This protocol may be run in microfuge tubes or in a 96-well plate.
Standard QC were applied (read integrity, mapping statistics, library complexity, fragment bias) to remove unsatisfactory samples. […] Log 2 fold change and significance values were computed using PME count data (with replicates explicitly modeled versus pan-experiment controls), median ratio normalized, using maximum likelihood estimation rather than maximum a posteriori, and disabling the use of Cook's distance cutoff when determining acceptable adjusted p-values. […] RNA-seq signals were also normalized by read depth and visualized using the UCSC browser.
To identify small molecules that modulate target gene expression, primary human hepatocytes were prepared as a monoculture, and at least one small molecule compound was applied to the cells.
RNA-seq was performed to determine the effects of the compounds on the expression of the target genes in hepatocytes. Fold change was calculated by dividing the level of expression in the cell system that had been perturbed by the level of expression in an unperturbed system. Changes in expression having a p-value ≤0.05 were considered significant.
Significance was defined as an FPKM ≥1, a log 2(fold change) ≥0.5, and a q-value of ≤0.05 for all targets except for CPOX.

Molecule	UGT1A1 Fold Change (Log2) [3]	further results
C=CCNC1=C2C[C@@H](C)C[C@H](OC)[C@H](O)[C@@H](C)/C=C(\C)[C@H](OC(N)=O)[C@@H](OC)/C=C\C=C(/C)C(=O)NC(=CC1=O)C2=O [17-AAG (Tanespimycin)/KOS-953]	–	Stellate MECP2 (Avg_FC) 1 uM [1]: 2.43; Stellate MECP2 (Avg_FC) 10 uM [1]: 2.21; Human hep donor-1 MECP2 (Avg_FC) 1 uM [2]: 1.63; Human hep donor-1 MECP2 (Avg_FC) 10 uM [2]: 2.80
CNC(=O)c1ccc(N2C(=S)N(c3cnc(C#N)c(C(F)(F)F)c3)C(=O)C23CCC3)cc1F [ARN-509]	1.16 Log2	–
Cc1cc(Nc2nc(N[C@@H](C)c3ncc(F)cn3)ncc2Cl)[nH]n1 [AZD1480]	0.93 Log2	–
C[C@@H]1COCCN1c1cc(C2([S@](C)(=N)=O)CC2)nc(-c2cc[nH]c3nccc2-3)n1 [AZD6738]	1.03 Log2	–
O=C1Nc2cc(Br)ccc2/C1=C1/Nc2ccccc2/C1=N\O [BIO]	0.62 Log2	–
Cc1ccc(-n2nc(C(C)(C)C)cc2NC(=O)Nc2ccc(OCCN3CCOCC3)c3ccccc23)cc1 [BIRB 796]	1.04 Log2	–
CCOc1ccn(-c2ccc(F)cc2)c(=O)c1C(=O)Nc1ccc(Oc2ccnc(N)c2Cl)c(F)c1 [BMS 777607]	–	Stellate MECP2 (Avg_FC) 1 uM [1]: 0.97; Stellate MECP2 (Avg_FC) 10 uM [1]: 1.92; Human hep donor-2 MECP2 (Avg_FC) 1 uM [2]: 1.35; Human hep donor-2 MECP2 (Avg_FC) 10 uM [2]: 3.04
C[C@@]1(C(=O)Nc2ccc(F)nc2)CCCN1c1nc(Nc2cc(C3CC3)n[nH]2)c2cccn2n1 [BMS-754807]	1.33 Log2	–
C=C(c1ccc(C(=O)O)cc1)c1cc2c(cc1C)C(C)(C)CCC2(C)C [Bexarotene]	1.29 Log2	–
c1cc(OCCN2CCCCC2)cc(-c2n[nH]c3ccc(-c4nc[nH]n4)cc23)c1 [CC-401 hydrochloride]	–	Stellate MECP2 (Avg_FC) 1 uM [1]: 1.92; Stellate MECP2 (Avg_FC) 10 uM [1]: 2.69; Human hep donor-1 MECP2 (Avg_FC) 1 uM [2]: 1.84; Human hep donor-1 MECP2 (Avg_FC) 10 uM [2]: 2.03
C[C@H]1COC2=C1C(=O)C(=O)c1c2ccc2c1CCCC2(C)C [Cryptotanshinone]	0.93 Log2	–
Cc1nc(Nc2ncc(C(=O)Nc3c(C)cccc3Cl)s2)cc(N2CCN(CCO)CC2)n1 [Dasatinib]	0.67 Log2	–
CC[C@@](C)(Nc1ccnc(-c2c[nH]c3ncccc23)n1)C(=O)NCC(F)(F)F [Decernotinib]	0.58 Log2	–
c1cc(-c2cnn3cc(-c4ccc(OCCN5CCCCC5)cc4)cnc23)ccn1 [Dorsomorphin]	0.57 Log2	–
C=C1/C(=C\C=C2/CCC[C@]3(C)[C@@H]([C@H](C)/C=C/C=C/C(O)(CC)CC)CC[C@@H]23)C[C@@H](O)C[C@@H]1O [EB1089]	0.88 Log2	–
Cc1cc(C)c2c(c1)[C@@H](N(Cc1cc(C(F)(F)F)cc(C(F)(F)F)c1)c1nnn(C)n1)CCCN2C[C@H]1CC[C@H](C(=O)O)CC1 [Evacetrapib]	0.78 Log2	–
CCn1c(=O)c(-c2ccc(-c3cncs3)cc2Cl)cc2cnc(Nc3ccc(N4CCN(C)CC4)cc3)nc21 [FRAX597]	0.61 Log2	–
OCCn1cc(-c2ccc3c(c2)CC/C3=N\O)c(-c2ccncc2)n1 [GDC-0879]	0.55 Log2	–
CC(C)c1onc(-c2c(Cl)cccc2Cl)c1COc1ccc(/C=C/c2cccc(C(=O)O)c2)c(Cl)c1 [GW4064]	0.92 Log2	–
CCC1=C(C)CN(C(=O)NCCc2ccc(S(=O)(=O)NC(=O)N[C@H]3CC[C@H](C)CC3)cc2)C1=O [Glimepiride]	0.96 Log2	–
COc1cccc(-c2cc(F)ccc2[C@H]2Cc3nc(N)nc(C)c3C(=O)N2)n1 [HSP-990]	–	Stellate MECP2 (Avg_FC) 1 uM [1]: 1.98; Stellate MECP2 (Avg_FC) 10 uM [1]: 1.99; Human hep donor-1 MECP2 (Avg_FC) 1 uM [2]: 2.54; Human hep donor-1 MECP2 (Avg_FC) 10 uM [2]: 2.72; Human hep donor-2 MECP2 (Avg_FC) 1 uM [2]: 1.27; Human hep donor-2 MECP2 (Avg_FC) 10 uM [2]: 1.66

Molecule	UGT1A1 Fold Change (Log2) [3]	further results
CC(C)n1nc(-c2ccc3oc(N)nc3c2)c2c(N)ncnc21 [INK-128]	–	Stellate MECP2 (Avg_FC) 1 uM [1]: 1.33; Stellate MECP2 (Avg_FC) 10 uM [1]: 2.42; Human hep donor-2 MECP2 (Avg_FC) 1 uM [2]: 2.16; Human hep donor-2 MECP2 (Avg_FC) 10 uM [2]: 2.52
Cc1ccc2nc(NC(=O)CSc3nc4c(c(=O)n3-c3ccccc3)SCC4)sc2c1 [IWP-2]	0.64 Log2	–
NC(=O)c1ccc(I)c([N+](=O)[O-])c1 [Iniparib (BSI-201)]	–	Stellate MECP2 (Avg_FC) 1 uM [1]: 2.39; Stellate MECP2 (Avg_FC) 10 uM [1]: 2.26; Human hep donor-1 MECP2 (Avg_FC) 1 uM [2]: 2.28; Human hep donor-1 MECP2 (Avg_FC) 10 uM [2]: 2.15
Cn1cc(-c2ccc3nnc(C(F)(F)c4ccc5ncccc5c4)n3n2)cn1 [JNJ-38877605]	1.09 Log2	–
O=C(O)c1ccccc1C(=O)Nc1ccc(-c2ccccc2)cc1 [Kartogenin]	2.24 Log2	–
CC(=O)c1cccc(-c2cccc(-c3ccn(CCN4CCOCC4)n3)c2)c1 [LRH-1 antagonist]	0.91 Log2	–
CN(C)C[C@@H]1CCn2cc(c3ccccc32)C2=C(C(=O)NC2=O)c2cn(c3ccccc23)CCO1.Cl [LY333531 HCl]	–	Stellate MECP2 (Avg_FC) 1 uM [1]: 1.26; Stellate MECP2 (Avg_FC) 10 uM [1]: 2.15; Human hep donor-1 MECP2 (Avg_FC) 1 uM [2]: 1.44; Human hep donor-1 MECP2 (Avg_FC) 10 uM [2]: 2.14
Cn1cc(-c2ccc(F)c(C(F)(F)F)c2)nc1C1CCN(c2ncnc3[nH]ncc23)CC1 [LY2584702]	0.76 Log2	–
Cc1ccc(C(=O)OCc2ccc([C@@H](CN)C(=O)Nc3ccc4cnccc4c3)cc2)c(C)c1 [Netarsudil]	0.85 Log2	–
COc1ccc2[nH]c([S+]([O-])Cc3ncc(C)c(OC)c3C)nc2c1 (stereo not shown) [Omeprazole]	1.09 Log2	–
COc1cc2c(cc1OC)-c1c(OC)c(OC)cc3ccnc(c13)C2=O [Oxoglaucine]	0.83 Log2	–
CNC(=O)c1ccccc1Nc1cc(Nc2ccc(N3CCOCC3)cc2OC)ncc1C(F)(F)F [PND-1186]	0.90 Log2	–
CC(C)(C(=O)NCC(F)(F)C(F)(F)F)C(=O)N[C@@H]1C(=O)Nc2ccccc2-c2ccccc21 [RO4929097]	1.06 Log2	–
CCCn1c(=O)c2[nH]c(C34CC5CC(CC3C5)C4)nc2n(CCC)c1=O [Rolofylline (KW-3902), Rolofylline]	0.66 Log2	–
CC(C)[C@H](O)C(=O)N[C@@H](C)C(=O)N[C@@H]1C(=O)N(C)CCc2ccccc21 [Semagacestat]	1.01 Log2	–
BAM7	1.66 Log2	–
Pifithrin-a	1.44 Log2	–
meBIO	1.98 Log2	–
B1	0.59 Log2	–
B2	0.59 Log2	–
